# According to ChEMBL document CHEMBL5579852, “Promising anti-proliferative indolic benzenesulfonamides alter mechanisms with sulfonamide nitrogen substituents” (Eur J Med Chem, 2024):
# The source made the active and inactive calls. The calls are words filed in the database; no cut-off is given here.
# Columns and labels:
# [1] = test system: MCF7; assay: Antiproliferative activity against human MCF7 cells assessed as reduction in cell viability incubated for 72 hrs by CelltiterGlo luminescent assay; format: functional, cell-based; conditions: MCF7, 72 h
# [2] = test system: BT-474; assay: Antiproliferative activity against human BT-474 cells assessed as reduction in cell viability incubated for 72 hrs by CelltiterGlo luminescent assay; conditions: BT-474, 72 h
# [3] = test system: MES-SA; assay: Antiproliferative activity against human MES-SA cells assessed as reduction in cell viability incubated for 72 hrs by CelltiterGlo luminescent assay
# [4] = test system: HT-1080; assay: Antiproliferative activity against human HT-1080 cells assessed as reduction in cell viability incubated for 72 hrs by CelltiterGlo luminescent assay; conditions: HT-1080, 72 h
# [5] = Antiproliferative activity against human Melmet 5 cells assessed as reduction in cell viability incubated for 72 hrs by CelltiterGlo luminescent assay; conditions: Melmet 5, 72 h
# [6] = test system: A-375; assay: Antiproliferative activity against human A-375 cells assessed as reduction in cell viability incubated for 72 hrs by CelltiterGlo luminescent assay; conditions: A-375, 72 h
# [7] = Antiproliferative activity against human WM1366 cells assessed as reduction in cell viability incubated for 72 hrs by CelltiterGlo luminescent assay; conditions: WM1366, 72 h
# [8] = test system: CAKI-1; assay: Antiproliferative activity against human CAKI-1 cells assessed as reduction in cell viability incubated for 72 hrs by CelltiterGlo luminescent assay; conditions: CAKI-1, 72 h
# [9] = Antiproliferative activity against human Hermes 3C cells assessed as reduction in cell viability incubated for 72 hrs by CelltiterGlo luminescent assay; format: toxicity, cell-based
# [10] = Antiproliferative activity against human HEK293 cells assessed as reduction in cell viability incubated for 72 hrs by CelltiterGlo luminescent assay; format: toxicity, cell-based
# [11] = Antiproliferative activity against human RPE-1 cells assessed as reduction in cell viability incubated for 72 hrs by CelltiterGlo luminescent assay; format: toxicity, cell-based; conditions: RPE-1 cells (TERT-RPE1)
# [12] = test system: HeLa; assay: Antiproliferative activity against human HeLa cells assessed as reduction in cell viability incubated for 72 hrs by CelltiterGlo luminescent assay; format: functional, cell-based
# [13] = target: Tubulin (Homo sapiens) (UniProt P68371+Q9H4B7+P0DPH7+P68366+Q13509+Q71U36+P04350+Q3ZCM7+P07437+P68363+Q9BQE3+Q6PEY2+Q13885+Q9BVA1+Q9BUF5); assay: Inhibition of tubulin polymerization in human MES-SA cells assessed as appearance of spherical shaped cells at 10 nM incubated for 24 hrs by DAPI staining based confocal microscopy analysis; format: cell-based
# [14] = test system: MDA-MB-468; assay: cells; conditions: Homo sapiens, MDA-MB-468, 72 h
# Description: Antiproliferative activity against human MDA-MB-468 cells assessed as reduction in cell viability incubated for 72 hrs by CelltiterGlo luminescent assay
# [15] = test system: MES-SA; assay: Induction of apoptosis in human MES-SA cells assessed as necrotic cells at 100 nM incubated for 24 hrs by live/dead orange and TUNEL staining based flow cytometry analysis relative to control; format: functional
# [16] = test system: HeLa; assay: Antiproliferative activity against human HeLa cells assessed as reduction in cell viability incubated for 72 hrs by MTT assay; format: functional, cell-based
# [17] = test system: HeLa; assay: Antiproliferative activity against human HeLa cells assessed as inhibition of cell growth incubated for 72 hrs in absence of verapamil by MTT assay; format: functional, cell-based
# [18] = test system: HeLa; assay: Antiproliferative activity against human HeLa cells assessed as inhibition of cell growth incubated for 72 hrs in presence of verapamil by MTT assay; format: functional, cell-based
# [19] = test system: MES-SA; assay: Cell cycle distribution in human MES-SA cells assessed as accumulation of cells in G1 phase cells at 100 nM incubated for 24 hrs by Hoechst 33258 staining based flow cytometry (reference value: 60%); format: functional
# [20] = test system: MES-SA; assay: Cell cycle distribution in human MES-SA cells assessed as accumulation of cells in G2 phase cells at 100 nM incubated for 24 hrs by Hoechst 33258 staining based flow cytometry (reference value: 12 %); format: functional
# [21] = test system: MES-SA; assay: Cell cycle distribution in human MES-SA cells assessed as accumulation of cells in M phase cells at 100 nM incubated for 24 hrs by Hoechst 33258 staining based flow cytometry (reference value: 1.3 %); format: functional
# [22] = test system: MES-SA; assay: Cell cycle distribution in human MES-SA cells assessed as accumulation of cells in S phase cells at 100 nM incubated for 24 hrs by Hoechst 33258 staining based flow cytometry (reference value: 27 %); format: functional
# [23] = test system: MES-SA; assay: Induction of apoptosis in human MES-SA cells assessed as late apoptotic cells at 100 nM incubated for 24 hrs by live/dead orange and TUNEL staining based flow cytometry analysis relative to control; format: functional
# [24] = test system: MES-SA; assay: Induction of apoptosis in human MES-SA cells assessed as apoptotic cells at 100 nM incubated for 24 hrs by live/dead orange and TUNEL staining based flow cytometry analysis relative to control; format: functional
# [25] = test system: MES-SA; assay: Induction of apoptosis in human MES-SA cells assessed as live cells at 100 nM incubated for 24 hrs by live/dead orange and TUNEL staining based flow cytometry analysis relative to control; format: functional
# [26] = test system: MES-SA; assay: Induction of apoptosis in human MES-SA cells assessed as dead cells at 100 nM incubated for 24 hrs by live/dead orange and TUNEL staining based flow cytometry analysis relative to control; format: functional
# [27] = test system: MES-SA; assay: Induction of apoptosis in human MES-SA cells assessed as increase in caspase 3/7 activation at 100 nM by live-cell imaging based fluorescence assay; format: functional; conditions: time 3.0 day, TDE = time-dependent effect
# [28] = test system: MES-SA; assay: Cell cycle distribution in human MES-SA cells assessed as accumulation of cells in G2/M phase cells at 100 nM incubated for 24 hrs by Hoechst 33258 staining based flow cytometry (reference value: 13.3 %); format: functional
# [29] = cells; conditions: Homo sapiens, MDA-MB-468, 72 h
SMILES,IC50 [1],IC50 [2],IC50 [3],IC50 [4],IC50 [5],IC50 [6],IC50 [7],IC50 [8],IC50 at 72 h [9],IC50 at 72 h [10],IC50 at 72 h [11],IC50 [12],inhibition [13],IC50 [14],Activity [15],IC50 [16],IC50 [17],IC50 [18],Activity [19],IC50 [29],also measured
CC[C@]1(O)C[C@H]2CN(CCc3c([nH]c4ccccc34)[C@@](C(=O)OC)(c3cc4c(cc3OC)N(C=O)[C@H]3[C@@](O)(C(=O)OC)[C@H](OC(C)=O)[C@]5(CC)C=CCN6CC[C@]43[C@@H]65)C2)C1 [VINCRISTINE],4.2 nM,2.9 nM,4.9 nM,0.3 nM,0.2 nM,3.5 nM,4.5 nM,5.7 nM,2.8 nM,25.8 nM,7.6 nM,1 nM,Active,0.4 nM,–,–,–,–,–,–,–
COc1cc(S(=O)(=O)Nc2ccc3c(c2)c(C#N)cn3C)cc(OC)c1OC,12.1 nM,57.5 nM,11.8 nM,12.1 nM,1.6 nM,33.2 nM,65.7 nM,32.4 nM,87.1 nM,18.2 nM,52.8 nM,13.3 nM,inactive,11.8 nM,4.5%,43 nM,43 nM,29.1 nM,4%,12.4 nM,Activity [20]: 22%; Activity [21]: 67.7%; Activity [22]: 6%; Activity [23]: 1.8%; Activity [24]: 5.8%; Activity [25]: 88%; Activity [26]: 12%; Activity [27]: Tde; Activity [28]: 83.6%
COc1cc(S(=O)(=O)Nc2ccc3c(ccn3C)c2)cc(OC)c1OC,1.4 nM,46.1 nM,5.6 nM,5.6 nM,1.4 nM,6.4 nM,7.1 nM,4 nM,61 nM,4.9 nM,5.7 nM,3.9 nM,inactive,4.5 nM,4.7%,5.3 nM,22.9 nM,17.9 nM,4%,29.6 nM,Activity [20]: 29%; Activity [21]: 56.8%; Activity [22]: 6%; Activity [23]: 0.8%; Activity [24]: 4.2%; Activity [25]: 90.3%; Activity [27]: Tde; Activity [28]: 83.6%
COc1cc(S(=O)(=O)N(C)c2ccc3c(c2)c(C(N)=O)cn3C)cc(OC)c1OC,44 nM,17.9 nM,12.2 nM,14.3 nM,12.2 nM,22.8 nM,21.3 nM,29.6 nM,31.8 nM,92.2 nM,22.7 nM,13.9 nM,Active,26 nM,1.8%,15 nM,24.3 nM,18.2 nM,4%,70.8 nM,Activity [20]: 10%; Activity [21]: 75.3%; Activity [22]: 6%; Activity [23]: 1.6%; Activity [24]: 4.8%; Activity [25]: 91.8%; Activity [27]: Tde; Activity [28]: 83.6%
COc1cc(S(=O)(=O)N(C)c2ccc3c(ccn3C)c2)cc(OC)c1OC,15.8 nM,34.5 nM,9 nM,11.8 nM,12.9 nM,17.5 nM,13.5 nM,11 nM,67.4 nM,12.3 nM,20 nM,14.5 nM,Active,24.4 nM,3.4%,3.2 nM,50.1 nM,40.9 nM,4%,67.6 nM,Activity [20]: 10%; Activity [21]: 75.3%; Activity [22]: 6%; Activity [23]: 0.9%; Activity [24]: 5.7%; Activity [25]: 90%; Activity [27]: Tde; Activity [28]: 83.6%
COc1cc(S(=O)(=O)Nc2ccc3c(c2)c(C(N)=O)cn3C)cc(OC)c1OC,108 nM,126 nM,99.9 nM,69.2 nM,29.5 nM,245 nM,278 nM,310 nM,466 nM,492 nM,173 nM,93 nM,–,101 nM,–,102 nM,102 nM,55.4 nM,–,284 nM,–
